The nature of series [1]: Solubility in dosing vehicle. It counts as physicochemical. The note with it: Tween 80 (0.5%) or Kolliphor EL (10%).
Series [2] addresses T1, human NPFFR1 (hNPFFR1) receptor (Homo sapiens, UniProt Q9GZQ6).
T1 construct: expressed in transfected cells; host or cells: HEK-293 T cells, transient co-transfection
The series is described as follows: Human NPFFR1 evaluation using BRET biosensors in HEK-293 T cells. The note with it: hNPFFR1 in HEK-293 T cells, stimulated by EC80 RFRP-3, read-out: IC50 of antagonist activity. It counts as cell-based. The method in brief:
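HEK-293 T cells transiently co-expressing hNPFFR1, GαoB and a Gi-effector BRET biosensor pair; agonist read after 10 min compound alone, then antagonism after EC80 RFRP-3 for 10 min. IC50 from 20-point curves over 6 logs, duplicates in two independent experiments.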
Background: In BRET a luciferase serves as donor, and the signal depends on an acceptor being close.

Series [3] has as its system NPFFR1 KO and wild-type littermates. The series is described as follows: Morphine-induced hyperalgesia and tolerance in NPFF1R knockout mice and WT littermates. The class given is in vivo.
The test system of another series is C57BF6/N male mice. Kind of series: Incisional pain model, Von Frey test. The class given is in vivo.
For a further series, the target named is T2, hNPFF2R (Homo sapiens, UniProt Q9Y5X5).
T2 construct: expressed in transfected cells
The series is described as follows: Glo Sensor cAMP assay in HEK-293 expressing hNPFF2R. It counts as cell-based. To be noted: cells expressing hNPFF2R; forskolin 0.5 μM. The protocol:
The functional characterization of the selected compounds was performed by Glo Sensor cAMP kinetic assay, a validated approach for measuring Gαi/s activation by GPCRs (DiRaddo et al., 2014; Gilissen et al., 2015). HEK-Glo cells expressing either NPFF1 or NPFF2 receptors were suspended (10^6 cells per mF) in physiological Hepes buffer (10 mM HEPES, 0.4 mM NaH2PO4, 137.5 mM NaCl, 1.25 mM MgCl2, 1.25 mM CaCl2, 6 mM KCl, 10 mM glucose and 1 mg/mF bovine serum albumin, pH 7.4) supplemented with 1 mM D-Fuciferine. After equilibration for 2 h at 25° C., luminescence levels were recorded in real time in 96-well plates using a Flexstation^R 3 (Molecular Devices, Sunnyvale Calif., USA). Non-specific effect of the different compounds was evaluated in HEK-Glo cells without any recombinant human RF-amide receptors. To test the agonist activity on NPFF1R and NPFF2R, compounds were injected 15 minutes before addition of forskolin (0.5 μM) and readings were pursued for 90 minutes. […] According to their preferential coupling to Gi/o proteins, the stimulation of NPFF1R and NPFF2R by agonists was monitored as a dose-dependent reduction in steady-state luminescence levels, reflecting the inhibition of forskolin-induced cAMP accumulation. […]
(Changes in cAMP serve as a functional read-out for many G protein-coupled receptors.)

The target of another series is T3, hNPFFR2 (Homo sapiens, UniProt Q9Y5X5).
T3 construct: expressed in transfected cells; membranes
Kind of series: Radioligand binding competition, membranes from CHO cells expressing hNPFFR2. To be noted: 0.015 nM [D-Tyr1[125I], N-MePhe3]-NPFF, 1 hr at 25° C., read-out: NPFF2-R Ki. The method in brief:
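CHO membranes (5–10 μg protein) stably expressing hNPFFR1 or hNPFFR2 incubated 1 h at 25 °C with 0.015 nM [D-Tyr1[125I], N-MePhe3]-NPFF in HEPES pH 7.4 with Ca2+, Mg2+, 0.1% BSA. Non-specific binding defined with 10 μM RFRP-3; bound radioactivity counted after GF/B filtration.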

T3 sequence (Q9Y5X5 whole entry): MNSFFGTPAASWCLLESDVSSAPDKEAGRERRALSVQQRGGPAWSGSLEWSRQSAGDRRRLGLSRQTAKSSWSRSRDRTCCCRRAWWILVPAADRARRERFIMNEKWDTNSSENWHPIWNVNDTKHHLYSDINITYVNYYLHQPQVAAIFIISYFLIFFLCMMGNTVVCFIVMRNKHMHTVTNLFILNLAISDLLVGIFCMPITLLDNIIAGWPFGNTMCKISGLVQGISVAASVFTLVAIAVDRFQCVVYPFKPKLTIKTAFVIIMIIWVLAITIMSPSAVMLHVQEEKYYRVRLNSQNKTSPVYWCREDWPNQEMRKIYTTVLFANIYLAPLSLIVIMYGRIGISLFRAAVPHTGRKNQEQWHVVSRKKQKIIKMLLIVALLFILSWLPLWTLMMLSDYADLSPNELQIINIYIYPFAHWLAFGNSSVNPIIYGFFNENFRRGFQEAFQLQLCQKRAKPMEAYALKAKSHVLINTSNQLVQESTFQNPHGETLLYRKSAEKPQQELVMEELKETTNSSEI
T2 sequence (Q9Y5X5 whole entry): as above
T1 sequence (Q9GZQ6 whole entry): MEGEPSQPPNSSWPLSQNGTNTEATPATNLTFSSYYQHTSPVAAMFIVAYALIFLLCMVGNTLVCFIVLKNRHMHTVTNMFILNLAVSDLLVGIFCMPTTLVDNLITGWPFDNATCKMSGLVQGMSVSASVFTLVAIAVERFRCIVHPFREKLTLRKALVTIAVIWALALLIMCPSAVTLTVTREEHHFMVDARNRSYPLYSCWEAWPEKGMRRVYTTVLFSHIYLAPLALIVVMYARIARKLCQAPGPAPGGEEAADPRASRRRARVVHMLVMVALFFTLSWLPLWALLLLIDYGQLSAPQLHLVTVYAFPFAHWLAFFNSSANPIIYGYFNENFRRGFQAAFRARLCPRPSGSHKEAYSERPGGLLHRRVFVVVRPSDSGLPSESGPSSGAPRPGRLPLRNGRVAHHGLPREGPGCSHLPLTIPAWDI

For the molecule `Nc1ccc(-c2cccc(Cl)c2Cl)c(N)n1` [Compound 1j, 3-(2,3-dichlorophenyl)pyridine-2,6-diamine], in series [1], the “solubility in vehicle (Kolliphor EL vs Tween 80)” value was “better solubility in Kolliphor EL”. Moreover, the IC50 in series [2] is 100 to 500 nM. Also, in series [3] (NPFF1R KO, 1j 5 mg/kg oral before daily morphine 10 mg/kg s.c., FIG. 5B, C), the “morphine-induced hyperalgesia in NPFF1R KO mice” value is on record as “did not show any significant effect”. Further, in series [3] (WT littermates, 1j 5 mg/kg oral before daily morphine 10 mg/kg s.c., FIG. 5B, C), the “morphine-induced hyperalgesia in WT mice” value is “significantly attenuated this hyperalgesia”. Further, the “morphine analgesia at day 8 in WT mice (tolerance)” value in series [3] (WT littermates, morphine 5 mg/kg s.c., 1j 5 mg/kg oral, FIG. 5D) is reported as “failed to restore morphine analgesia at day 8”. Also, in the series on C57BF6/N male mice (morphine 2.5 mg/kg sc. alone or 1j 5 mg/kg po alone, FIG. 3B), the “mechanical allodynia after paw incision (allodynia index d1-d6), drug alone” value is given as “slightly attenuated but not significantly the mechanical allodynia”. In addition, the “mechanical allodynia after paw incision (allodynia index d1-d6), pre-treatment before morphine” value with C57BF6/N male mice (mouse, in vivo) was “significantly enhanced morphine effect at preventing the mechanical allodynia”. In addition, the “effect of compound tested alone (agonist activity)” value at hNPFF2R was “had no effect”. On hNPFFR2, the Ki turned out to be 2000 nM.

The term IC50 denotes the concentration needed to halve the response being measured. Broadly, the Ki is a measure of affinity in units of concentration, obtained from inhibition or displacement.

Values taken from US20210221784A1, “COMPOUNDS AND COMPOSITIONS FOR THE TREATMENT OF PAIN” (Université de Strasbourg, priority 2018, published 2021).
